Assay results taken from patent publication US11292807B2 (OCEANS LTD., priority 2015, dated 2022).
Like-named read-outs stand apart in the source and are kept apart here.

System: SKOV3 (ovarian adenocarcinoma)
Conditions: human, 72 h

SMILES: CC/C=C\C/C=C\C/C=C\C/C=C\C/C=C\CCCC(=O)OCC(COC1OC(CO)C(O)C(O)C1O)OC(=O)CCCCCCCCCCCCCCC (centres unmarked) [Compound 2, MGDG C20:5/C16:0]
- Average cell viability (10 ug/mL): 94%
- Average cell viability (50 ug/mL): 62%
